From ChEMBL document CHEMBL1201862, “PubChem BioAssay data set” (2004)
Calls of active or inactive are those of the source.

Experiments:
[1] = alpha-synuclein stem-loop luciferase translation blockers – H4 neuroglioma cells, luminescence, confirmation (AID 1988); type: functional, cell-based
[2] = Luminescence Cell-Based Dose Response HTS to Identify Inhibitors of 5'UTR Stem-Loop Driven Prion Protein mRNA Translation in H4 Neuroglioblastoma Cells. [Related pubchem assays: 1827 (Project Summary), 1813 (Primary HTS)]; type: functional
[3] = luciferase reporter signal suppression in cells – H4 neuroglioma cells, luminescence, dose response (AID 1990); type: functional, cell-based
[4] = cells; conditions: A549
[5] = biological target: RNA-editing ligase 1, mitochondrial (Trypanosoma brucei brucei, UniProt P86926); test: inhibition of trypanosome RNA editing ligase – biochemical, fluorescence, Trypanosoma brucei, dose response (AID 1117295); type: functional
[6] = biological target: T1, Ubiquitin-conjugating enzyme E2 N (Homo sapiens, UniProt P61088); type: functional;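 further: Dose-response confirmation in a TR-FRET assay detecting UBC13-driven polyubiquitin chain formation, inhibition measured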
T1 sequence (P61088 whole entry): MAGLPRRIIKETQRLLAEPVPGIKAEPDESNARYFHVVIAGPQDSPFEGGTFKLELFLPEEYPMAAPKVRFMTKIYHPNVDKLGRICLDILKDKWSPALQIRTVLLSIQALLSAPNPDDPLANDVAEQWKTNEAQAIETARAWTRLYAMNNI

[7] = microbe, parasite or virus in culture; type: functional; conditions: Mycobacterium tuberculosis
[8] = cells
[9] = biological target: Major prion protein (Homo sapiens, UniProt P04156); type: functional, cell-based
[10] = biological target: NAD-dependent protein deacylase sirtuin-5, mitochondrial (Homo sapiens, UniProt Q9NXA8); test: sirtuin-5 deacylation blockers, concentration series – biochemical, fluorescence imaging, cherry-pick, set 5, dose response (AID 720591);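 further: desuccinylation of succinyl peptide AMC substrate read as fluorescence after trypsin release; potency of inhibitors that lower fluorescence and may act on trypsin instead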
[11] = cells; conditions: HEK293
[12] = HEK293 Cytotoxicity Assay Measured in Cell-Based System Using Plate Reader - 7071-01_Inhibitor_Dose_CherryPick_Activity_Set2.; type: functional
[13] = test system: HEK293; test: viability loss in HEK293T cells – cell-based, ATP luminescence, cherry-pick samples, cytotoxicity control, dose response (AID 687005); type: functional; conditions: Homo sapiens;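 further: cells exposed to compound for 48 hours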
[14] = test system: HeLa; test: viability loss in HeLa cells – cell-based, ATP luminescence, cherry-pick samples, cytotoxicity control, dose response (AID 687004); type: functional; conditions: Homo sapiens
[15] = inhibitors acting on PAX2 in cells – cell-based, plate reader, dry powder samples, selectivity assay for PAX8 inhibitor project, dose response (AID 743048); type: functional;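 further: HEK293 cells carrying a WT1 promoter luciferase reporter driven by expressed Pax2; potency is for inhibition of Pax2 driven reporter signal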
[16] = biological target: Paired box protein Pax-8 (Homo sapiens, UniProt Q06710); test: PAX8 transcriptional activity inhibition in RMG-I – RMG-I cells, luciferase, cherry-pick, dose response (AID 687027); type: functional, cell-based;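 further: luciferase reporter driven by Pax8 target thyroperoxidase promoter measured by SteadyGlo luminescence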
[17] = COV434 cell viability loss – plate reader, dry powder, SA7, cytotoxicity control for PAX8 inhibitor project, dose response (AID 743145); type: functional, cell-based
[18] = OVCAR8 cell viability loss – plate reader, dry powder samples, PAX8 project, dose response (AID 743197); type: functional, cell-based; conditions: OVCAR-8
[19] = PAX5 cellular inhibition readout – cell-based, plate reader, dry powder samples, selectivity assay for PAX8 inhibitor project, dose response (AID 743047); type: functional;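 further: HEK293 cells carrying a Pax5 driven CD19 promoter luciferase reporter; potency of inhibitors that lower reporter luminescence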
[20] = PAX8-dependent cell viability loss – plate reader, dry powder, dose response (AID 743049); type: functional, cell-based
[21] = A2780 cell killing – plate reader, dry powder samples, cytotoxicity control, dose response (AID 743046); type: functional, cell-based
[22] = Late stage assay provider results from the probe development effort to identify inhibitors of the Plasmodium falciparum M18 Aspartyl Aminopeptidase (M18AAP): radiolabel-based cell-based dose response assay to identify compounds that inhibit P. falciparum growth in RBCs, Set 2..; type: functional
[23] = Late stage assay provider results from the probe development effort to identify selective inhibitors of heat shock protein 90 (HSP90): Absorbance-based cell proliferation assay in MCF7 cells.; type: functional
[24] = Late stage assay provider results from the probe development effort to identify selective inhibitors of heat shock protein 90 (HSP90): Absorbance-based cell proliferation assay in SKBR3 cells.; type: functional; conditions: SK-BR-3
[25] = HeLa cell viability loss – plate reader, dry powder, cytotoxicity control, dose response (AID 651946); type: functional, cell-based
[26] = MITF Measured in Cell-Based System Using Plate Reader - 2084-01_Inhibitor_Dose_DryPowder_Activity_Set7.; type: functional
[27] = cytotoxicity in melanoma parental cells – cell-based, CellTiter-Glo, dry powder, set 6, MITF inhibitor project, dose response (AID 624429); type: functional; conditions: SK-MEL-5
[28] = viability loss in MITF-independent A375 cells – cell-based, CellTiter-Glo luminescence, dry powder, set 7, counter-screen for MITF inhibitor project, dose response (AID 624490); type: functional; conditions: A-375
[29] = MITF Orthogonal Assay: SK-MEL-5 CTG Assay Measured in Cell-Based System Using Plate Reader - 2084-02_Inhibitor_Dose_DryPowder_Activity_Set5.; type: functional
[30] = MITF Measured in Cell-Based System Using Plate Reader - 2084-01_Inhibitor_Dose_DryPowder_Activity_Set6.; type: functional
[31] = biological target: T2, Oxysterols receptor LXR-beta (Homo sapiens, UniProt P55055); type: functional, cell-based;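 further: agonist activity at LXR measured by a cell-based luminescence readout across a dose range, run as a counterscreen for daf-12 agonists; HEK293 cells with Gal4-LXR fusion and GAL4-driven luciferase reporter; potency for activation of Gal4-LXR reporter so compounds are agonists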
T2 sequence (P55055 whole entry): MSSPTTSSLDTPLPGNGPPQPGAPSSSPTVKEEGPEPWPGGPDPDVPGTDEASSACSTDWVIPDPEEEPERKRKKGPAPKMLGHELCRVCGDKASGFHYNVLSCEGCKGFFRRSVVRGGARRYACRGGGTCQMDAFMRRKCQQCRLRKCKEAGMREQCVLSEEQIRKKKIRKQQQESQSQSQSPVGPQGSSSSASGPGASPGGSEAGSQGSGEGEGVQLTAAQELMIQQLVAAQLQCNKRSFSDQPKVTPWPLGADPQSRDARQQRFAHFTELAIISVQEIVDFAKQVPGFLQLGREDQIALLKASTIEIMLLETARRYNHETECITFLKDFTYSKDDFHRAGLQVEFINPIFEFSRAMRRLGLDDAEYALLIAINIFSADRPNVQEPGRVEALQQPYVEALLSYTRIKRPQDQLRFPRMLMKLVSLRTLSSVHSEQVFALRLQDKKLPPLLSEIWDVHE

[32] = growth inhibition of PfATP4-mutant resistant parasites – NITD609-resistant line, SYBR Green, dry powder, dose response (AID 1159571); type: functional, cell-based;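 further: parasites synchronized at ring stage by sorbitol before testing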
[33] = toxicity to human HepG2 hepatoma cells – cell-based, plate reader, dry powder samples, cytotoxicity control, dose response (AID 1159569); type: functional;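 further: inhibitor potency with signal falling toward the positive control level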
[34] = Plasmodium falciparum Dd2 Sybr green parasite growth Measured in Cell-Based and Microorganism Combination System Using Plate Reader - 2153-01_Inhibitor_Dose_DryPowder_Activity_Set3.; type: functional
[35] = Dd2 malaria parasite growth inhibition potency – SYBR Green, dry powder samples, dose response (AID 1159566); type: functional, cell-based;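 further: potency for growth inhibition with lower SYBR green DNA signal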
[36] = P. falciparum Dd2 growth inhibitors, dose response, SYBR Green, cherry-picked samples (AID 1159567); type: functional, cell-based
[37] = growth inhibition of yeast DHODH-expressing 3D7 parasites – SYBR Green, dry powder samples, dose response (AID 1159570); type: functional, cell-based;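 further: parasite growth measured after 72 hours of compound exposure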
[38] = biological target: Metabotropic glutamate receptor 7 (Homo sapiens, UniProt Q14831); test: potentiation of glutamate EC20 at mGlu7 – cell-based, calcium mobilization, Galpha15, dose response (AID 743384); type: functional
[39] = viability loss in HepG2 hepatoma cells – cell-based, ATP luminescence, dry powder, set 2, cytotoxicity control, dose response (AID 743129); type: functional
[40] = loss of HEK293T viability via ATP – cell-based, plate reader, dry powder, set 10, cytotoxicity control, dose response (AID 743315); type: functional; conditions: HEK293
[41] = HCT116 cell viability decrease, GSK3B pretreatment – CellTiter-Glo, IC50, dose response (AID 1117339); type: functional; conditions: HCT-116
[42] = SNU-C1 cell viability reduction, dose response, CellTiter-Glo luminescence (AID 1117323); type: functional, cell-based
[43] = cytotoxicity toward HCT116 cells – cell-based, CellTiter-Glo luminescence, IC50, dose response (AID 1117332); type: functional; conditions: HCT-116
[44] = CellTiter-Glo luminescence survival assay, SW480 colon tumor line, concentration-response curve, half-maximal inhibitory concentration (AID 1117338); type: functional
[45] = RKO cell viability reduction, dose response, CellTiter-Glo luminescence (AID 1117322); type: functional
[46] = Reduced DLD-1 viability, concentration-response, CellTiter-Glo luminescence (AID 1117352); type: functional
[47] = cytotoxicity toward HT-29 cells – cell-based, CellTiter-Glo luminescence, IC50, dose response (AID 1117330); type: functional
[48] = cytotoxicity toward Colo320 cells – cell-based, CellTiter-Glo luminescence, IC50, dose response (AID 1117334); type: functional; conditions: COLO 320
[49] = biological target: fMet-Leu-Phe receptor (Homo sapiens, UniProt P21462); test: formyl peptide receptor binders – dose response (AID 519); type: functional
[50] = IC50 of insulin release inhibition, rat insulinoma INS-1E line, 5 mM glucose, cell-based (AID 1117331); type: functional

CCC(=O)NCCCNc1nc2c(C)cccc2cc1C#N
EC50 [1]: > 120 µM (not active) | EC50 [2]: > 120 µM (not active) | EC50 [3]: 25.9 µM (active) | AC50 [4]: > 52 µM (inactive)

COc1ccc(C[C@H]2CN3C(=NC[C@H]3Cc3ccccc3)N2CCNC(=O)CCC2CCCCC2)cc1
IC50 [5]: > 96.6 µM (inactive) | IC50 [6]: > 20 µM (inactive) | CC50 [7]: 23.8 µM (active)

CN(C)S(=O)(=O)c1ccc(N2CCCC2)c(C(=O)Nc2nccs2)c1
IC50 [8]: > 138 µM (inactive) | IC50 [9]: 14.8 µM (inactive)

CC(C)(C)OC(=O)N(CCc1ccccc1)Cc1ccccc1OCc1cccc(NC(=O)C2CCCC2)c1
AC50 [10]: > 30 µM (inactive)

Cc1cccn2c(=O)c3cc(C(=O)NCc4ccc(F)cc4)c(=N)n(CCCN4CCOCC4)c3nc12
AC50 [11]: > 52 µM (inactive)

C[C@H]1CN([C@@H](C)CO)S(=O)(=O)c2ccc(C#Cc3cccc(F)c3)cc2O[C@@H]1CN(C)C(=O)NC1CCCCC1
AC50 [12]: 8.15 µM (active) | AC50 [13]: 8.15 µM (active) | AC50 [14]: 34.4 µM (active)

CCCC#Cc1ccc([C@@H]2[C@@H](C#N)N(S(=O)(=O)c3cccc(F)c3)[C@H]2CO)cc1
AC50 [15]: 28.2 µM (active) | AC50 [16]: 5.96 µM (active) | AC50 [17]: > 70 µM (inactive) | AC50 [18]: 43.1 µM (active) | AC50 [19]: 24.2 µM (active) | AC50 [20]: 37 µM (active)

COc1ccc2c3c(n(C)c2c1)[C@H](CO)N(C(=O)Nc1ccc(F)cc1)CC31CCN(S(=O)(=O)c2cccc(C)c2)CC1
AC50 [16]: 7.72 µM (active) | AC50 [18]: 58 µM (active) | AC50 [21]: 38.8 µM (active)

COc1ccc(CCNc2c3c(nc4ccccc24)CCCC3)cc1OC
IC50 [22]: 16.5 µM (inactive)

COc1ccccc1NC(=O)c1ccc(=O)oc1
IC50 [23]: 30.2 µM (inactive) | IC50 [24]: 33.1 µM (inactive)

c1ccc(-c2nnc(SCc3ncco3)o2)cc1
AC50 [25]: > 52 µM (inactive)

O=C1C(NS(=O)(=O)c2ccccc2)=C(c2ccccc2)C(=O)c2ccccc21
AC50 [26]: 41 µM (active) | AC50 [27]: 65.6 µM (active) | AC50 [28]: > 70 µM (inactive) | AC50 [29]: 56.7 µM (active) | AC50 [30]: 61.4 µM (active)

COC1=C/C(=C/c2c(O)c(C#N)c3ccccn23)C=CC1=O
EC50 [31]: > 67.5 µM (inactive)

CCCNC(=O)N1[C@H](C#N)[C@H](c2ccc(C3=CCCCC3)cc2)[C@H]1CO
AC50 [32]: 0.163 µM (active) | AC50 [33]: > 100 µM (inactive) | AC50 [34]: 0.374 µM (active) | AC50 [35]: 0.113 µM (active) | AC50 [36]: 0.424 µM (active) | AC50 [37]: 18.3 µM (active)

CC(=O)Nc1ccc(OCC(=O)c2cc(C)n(-c3ccc(OC(F)F)cc3)c2C)cc1
EC50 [38]: 2.4 µM (active)

Cc1ccc(OCCn2c(SCCO)nc3ccccc32)c(C(C)C)c1
AC50 [39]: 50.8 µM (active) | AC50 [40]: 31.2 µM (active)

CC=CC1C(C(=O)OCc2c(F)c(F)c(COC)c(F)c2F)C1(C)C (configuration not stated)
IC50 [41]: > 20 µM (inactive) | IC50 [42]: > 20 µM (inactive) | IC50 [43]: > 20 µM (inactive) | IC50 [44]: > 20 µM (inactive) | IC50 [45]: > 20 µM (inactive) | IC50 [46]: > 20 µM (inactive) | IC50 [47]: > 20 µM (inactive) | IC50 [48]: > 20 µM (inactive)

Cc1ccc(C(=O)C2=C(O)C(=O)N(Cc3ccccc3)C2c2cccnc2)o1 (configuration not stated)
Ki [49]: > 66.7 µM (inactive)

CNCCCCOc1ccccc1Cc1ccccc1 [BIFEMELANE]
IC50 [50]: > 33.3 µM (inactive)
